These results are taken from PubChem BioAssay (NCI).

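Method: 48-hour compound exposure of cells in 96-well plates, five concentrations, linear interpolation of endpoints. TGI: concentration producing complete growth inhibition.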

Experiment in all cases: NCI tumour cell line growth inhibition, 48 h
In assay [1] the test system is A549 NSCLC.
Assay [2] relates to CAKI-1 renal.
Assay [3] deals with DU-145 prostate.
Assay [4] deals with EKVX NSCLC.
Assay [5] relates to HCC-2998 colon.
Assay [6] deals with HL-60(TB) leukemia.
In assay [7] the test system is HOP-92 NSCLC.
The subject of assay [8] is HS 578T breast.
Assay [9] deals with KM12 colon.
Assay [10] concerns NCI-H460 lung.
The subject of assay [11] is NCI-H522 lung.
Assay [12] concerns OVCAR-8 ovarian.
For assay [13], the system named is SF-539 CNS.
Assay [14] relates to SK-MEL-28 melanoma.
Assay [15] deals with SK-MEL-5 melanoma.
The test system of assay [16] is SK-OV-3 ovarian.
Assay [17] relates to SNB-19 CNS.
Assay [18] concerns U251 CNS.
Assay [19] concerns UACC-62 melanoma.

As for `COc1cc(CCNC2=CC(=O)c3ncccc3C2=O)ccc1O`, the TGI was 6.44 µM in assay [1]; 12 µM in assay [2]; 12.3 µM in [3]; 37.9 µM in assay [4]; 16.8 µM in assay [5]; above 26.9 µM in assay [6]. Moreover, the TGI was 42.7 µM in assay [7]; 15.6 µM in assay [8]; 24.9 µM in assay [9]; 2.71 µM in [10]; 10.3 µM in assay [11]; 14.3 µM in assay [12]. In addition, the TGI in [13] came out at 7.83 µM; in assay [14], 4.09 µM; in assay [15], 1.84 µM; in [16], 41.7 µM; in assay [17], 17.7 µM; in assay [18], 19.6 µM. Besides, in assay [19], the TGI came out at 3.8 µM.
For the compound `N#Cc1nc(CCC(C(=O)O)N2C(=O)c3ccccc3C2=O)oc1N` (stereo not drawn), the TGI in assay [1], in assay [2], in assay [3], in [4], in assay [5] and in [6] was above 100 µM in each case. For the same compound, the TGI in [7], in [8], in assay [9], in [10], in [11] and in assay [12] was above 100 µM throughout. For the same compound, the TGI in [13], in [14], in assay [15], in assay [16], in assay [17] and in [18] was above 100 µM throughout. The same compound registered a TGI in assay [19] above 100 µM.
In the case of `CC(=O)OCC1OC(NC(=S)Nn2c(-c3ccccc3)nc3ccccc3c2=O)C(OC(C)=O)C(OC(C)=O)C1OC(C)=O` (stereo not drawn), the TGI in assay [1], in [2], in assay [3], in assay [4], in assay [5] and in assay [6] was above 100 µM throughout. The TGI in assay [7], in assay [8], in assay [9], in assay [10], in assay [11] and in [12] was above 100 µM in each case. Further, the TGI in assay [13], in assay [14], in [15], in assay [16], in assay [17] and in [18] was above 100 µM throughout. This compound displayed a TGI in assay [19] above 100 µM.
As for `COC(=O)[C@]1(CCC(C)=O)C(=O)C=CN([C@H](C)c2ccccc2)[C@@H]1Cc1ccc(OC)c(OCc2ccccc2)c1I`, the TGI is 73.5 µM in [1]; above 100 µM in assay [2]; 37.5 µM in [3]; above 100 µM in assay [4]; 29.2 µM in assay [5]; 69.8 µM in assay [6]. Moreover, the TGI in assay [7] came to 21.3 µM; in assay [8] it was 79.4 µM; in [9], 43.1 µM; in assay [10], 30.7 µM; in [11], 41.6 µM; in [12], 85.2 µM. The TGI in assay [13] was 32.9 µM; in assay [14] it was above 100 µM; in assay [15], 26.9 µM; in [16], above 100 µM; in assay [17] it was 81.8 µM; in assay [18] it was 33.9 µM. For the same compound, the TGI in [19] turned out to be 29.2 µM.
Consider `CCCCCCCC(=O)N1C2CC3CCC2(CS1(=O)=O)C3(C)C` (stereo not drawn), for which the TGI was above 100 µM in assay [1]; 61.7 µM in assay [2]; above 100 µM in assay [3]; above 100 µM in [4]; 51.2 µM in assay [5]; 41.9 µM in assay [6]. The TGI in [7] is 68 µM; in assay [8], above 100 µM; in assay [9], 74.8 µM; in assay [10], above 100 µM; in [11], 48.5 µM; in assay [12], above 100 µM. Further, the TGI in assay [13] is 41.5 µM; in assay [14] it was above 100 µM; in [15], 34.4 µM; in assay [16], above 100 µM; in assay [17] it was 76.5 µM; in [18], 69.9 µM. The compound also showed a TGI in assay [19] of 55.5 µM.
As to `O=[N+]([O-])C1=Cc2c(O)ccc(O)c2C2c3ccccc3NC12` (stereo not drawn), the TGI in [1] was 37.5 µM; in assay [2] it was 8.99 µM; in assay [3], above 54 µM; in assay [4] it was 28.6 µM; in [5], 24.7 µM; in [6] it was above 21 µM. Moreover, the TGI in [7] was 20.7 µM; in assay [8] it was above 57 µM; in assay [9] it was 24.4 µM; in [10], 33.5 µM; in [11] it was 5.48 µM; in assay [12], above 42.6 µM. Also, the TGI was 63 µM in assay [13]; 43 µM in assay [14]; 27.6 µM in assay [15]; above 100 µM in assay [16]; 34.5 µM in [17]; 29.4 µM in assay [18]. Further, in assay [19], the TGI worked out at 22.7 µM.
On to `O=C1C(CN2CCCC2)CCC1CN1CCCC1` (stereo not drawn), for which the TGI in assay [1] was above 100 µM; in assay [2] it was 24.6 µM; in [3] it was above 100 µM; in assay [4] it was above 82.7 µM; in assay [5], above 100 µM; in [6], above 100 µM. Besides, the TGI was 30.1 µM in assay [7]; 55.7 µM in [8]; above 100 µM in assay [9]; above 100 µM in assay [10]; 3.52 µM in assay [11]; 37.5 µM in [12]. The TGI in [13] was 35.3 µM; in [14], 33.9 µM; in assay [15], 31.9 µM; in assay [16], above 100 µM; in assay [17], above 100 µM; in assay [18], above 100 µM. In assay [19], the TGI was determined as 32.9 µM.
Turning to `CC(=O)OCCn1c(Cc2ccc(Cl)cc2)nn(C(C)=O)c1=O`, the TGI in [1], in assay [2], in [3], in [4], in assay [5] and in assay [6] was above 100 µM throughout. The TGI in assay [7], in assay [8], in assay [9], in [10], in [11] and in assay [12] was above 100 µM in each case. The TGI in assay [13], in assay [14], in assay [15], in assay [16], in assay [17] and in [18] was above 100 µM in each case. The compound further had a TGI in assay [19] above 100 µM.
As for `O=C(O)CN1CCN2CCOCCN(CC1)CCN(CC(=O)O)CC2`, the TGI in assay [1], in assay [2], in [3], in assay [4], in assay [5] and in assay [6] was above 100 µM each time. In addition, the TGI in assay [7], in [8], in [9], in [10], in [11] and in assay [12] was above 100 µM each time. The TGI in assay [13], in assay [14], in [15], in assay [16], in assay [17] and in assay [18] was above 100 µM in each case. The TGI in [19] is above 100 µM.
With `C(#C[C@@]12CCC[C@@H]1NCO2)c1ccc2c(c1)OCO2`, the TGI in assay [1] was above 100 µM; in assay [2] it was above 100 µM; in assay [3], above 100 µM; in [4], above 100 µM; in assay [5], 34.6 µM; in [6], 68.2 µM. In addition, the TGI in assay [7], in [8], in assay [9], in assay [10], in assay [11] and in assay [12] was above 100 µM in each case. For the same compound, the TGI in assay [13], in assay [14], in assay [15], in [16], in [17] and in assay [18] was above 100 µM each time. In assay [19], the TGI is above 100 µM.
As for `C/C(=N\NC(N)=O)C(CN1CCOCC1)C(c1ccccc1)c1c(O)c2ccccc2oc1=O` (stereo not drawn), the TGI in [1], in assay [2], in assay [3], in [4], in assay [5] and in assay [6] was above 100 µM each time. Also, the TGI in [7], in assay [8], in assay [9], in assay [11], in assay [12] and in [13] was above 100 µM each time. Further, the TGI in assay [14], in assay [15], in [16], in [17], in [18] and in assay [19] was above 100 µM throughout.
